SMILES strings stand for the structures.

The first assay concerns NCI-H1734. Put plainly: relative viability (nuclei count vs DMSO), 5 days (fraction); higher = more cells survive. The conditions noted are these: first compound 20 µM. The gist of the method:
(§1)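 Dosing by pin tool came one day after lung cancer cell lines were seeded in 1536-well plates, using either one drug or a fixed anchor-drug dose plus five library-drug doses (not always all listed) in √10 steps. After 5 days, nuclei were counted on 4× images. Relative viability is treated-well nuclei count divided by vehicle-well nuclei count, and values are medians of duplicate plates.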
In turn, `COCC1(CO)C(=O)C2CCN1CC2` (configuration not stated) [PRIMA-1MET] + CC(=O)Nc1cccc(-n2c(=O)n(C3CC3)c(=O)c3c(Nc4ccc(I)cc4F)n(C)c(=O)c(C)c32)c1 [Trametinib] (partner 0.02 µM) yielded a relative viability of 0.0425.

For `COCC1(CO)C(=O)C2CCN1CC2` (configuration not stated) [PRIMA-1MET] + Nc1ncn([C@H]2C[C@H](O)[C@@H](CO)O2)c(=O)n1 [Decitabine] (partner 2 µM), the relative viability is 0.0575.

On to `COCC1(CO)C(=O)C2CCN1CC2` (configuration not stated) [PRIMA-1MET] + O=C(c1cc(Cc2n[nH]c(=O)c3ccccc23)ccc1F)N1CCN(C(=O)C2CC2)CC1 [Olaparib] (partner 8 µM), for which the relative viability amounted to 0.0357.

Another assay deals with NCI-H1650. Described as above. The conditions noted are these: first compound 0.2 µM. The gist of the method:
as §1
For `COCC1(CO)C(=O)C2CCN1CC2` (configuration not stated) [PRIMA-1MET] + N=C(N)NC(=N)NCCc1ccccc1 [Phenformin] (partner 250 µM), the relative viability amounted to 0.569.

For the compound `COCC1(CO)C(=O)C2CCN1CC2` (configuration not stated) [PRIMA-1MET] + Nc1nc2[nH]cc(CCc3ccc(C(=O)N[C@@H](CCC(=O)O)C(=O)O)cc3)c2c(=O)[nH]1 [Pemetrexed] (partner 0.2 µM), the relative viability was 0.407.

Compound `COCC1(CO)C(=O)C2CCN1CC2` (configuration not stated) [PRIMA-1MET] + CC(=O)Nc1cccc(-n2c(=O)n(C3CC3)c(=O)c3c(Nc4ccc(I)cc4F)n(C)c(=O)c(C)c32)c1 [Trametinib] (partner 0.02 µM) returned a relative viability of 0.545.

As for `COCC1(CO)C(=O)C2CCN1CC2` (configuration not stated) [PRIMA-1MET] + Nc1ncn([C@H]2C[C@H](O)[C@@H](CO)O2)c(=O)n1 [Decitabine] (partner 2 µM), the relative viability came to 0.485.

With `COCC1(CO)C(=O)C2CCN1CC2` (configuration not stated) [PRIMA-1MET] + O=C(c1cc(Cc2n[nH]c(=O)c3ccccc23)ccc1F)N1CCN(C(=O)C2CC2)CC1 [Olaparib] (partner 8 µM), the relative viability stood at 0.75.

The same assay, now with this note: first compound 0.6325 µM.
As for `COCC1(CO)C(=O)C2CCN1CC2` (configuration not stated) [PRIMA-1MET] + N=C(N)NC(=N)NCCc1ccccc1 [Phenformin] (partner 250 µM), the relative viability came out at 0.443.

The compound `COCC1(CO)C(=O)C2CCN1CC2` (configuration not stated) [PRIMA-1MET] + Nc1nc2[nH]cc(CCc3ccc(C(=O)N[C@@H](CCC(=O)O)C(=O)O)cc3)c2c(=O)[nH]1 [Pemetrexed] (partner 0.2 µM) gave a relative viability of 0.306.

The compound `COCC1(CO)C(=O)C2CCN1CC2` (configuration not stated) [PRIMA-1MET] + CC(=O)Nc1cccc(-n2c(=O)n(C3CC3)c(=O)c3c(Nc4ccc(I)cc4F)n(C)c(=O)c(C)c32)c1 [Trametinib] (partner 0.02 µM) gave a relative viability of 0.48.

Regarding `COCC1(CO)C(=O)C2CCN1CC2` (configuration not stated) [PRIMA-1MET] + Nc1ncn([C@H]2C[C@H](O)[C@@H](CO)O2)c(=O)n1 [Decitabine] (partner 2 µM), the relative viability amounted to 0.314.

The compound `COCC1(CO)C(=O)C2CCN1CC2` (configuration not stated) [PRIMA-1MET] + O=C(c1cc(Cc2n[nH]c(=O)c3ccccc23)ccc1F)N1CCN(C(=O)C2CC2)CC1 [Olaparib] (partner 8 µM) registered a relative viability of 0.744.

The same assay, now with this note: first compound 2 µM.
In turn, `COCC1(CO)C(=O)C2CCN1CC2` (configuration not stated) [PRIMA-1MET] + N=C(N)NC(=N)NCCc1ccccc1 [Phenformin] (partner 250 µM) came in with a relative viability of 0.453.

Turning to `COCC1(CO)C(=O)C2CCN1CC2` (configuration not stated) [PRIMA-1MET] + Nc1nc2[nH]cc(CCc3ccc(C(=O)N[C@@H](CCC(=O)O)C(=O)O)cc3)c2c(=O)[nH]1 [Pemetrexed] (partner 0.2 µM), the relative viability came out at 0.399.

On to `COCC1(CO)C(=O)C2CCN1CC2` (configuration not stated) [PRIMA-1MET] + CC(=O)Nc1cccc(-n2c(=O)n(C3CC3)c(=O)c3c(Nc4ccc(I)cc4F)n(C)c(=O)c(C)c32)c1 [Trametinib] (partner 0.02 µM), for which the relative viability was determined as 0.636.

For the compound `COCC1(CO)C(=O)C2CCN1CC2` (configuration not stated) [PRIMA-1MET] + Nc1ncn([C@H]2C[C@H](O)[C@@H](CO)O2)c(=O)n1 [Decitabine] (partner 2 µM), the relative viability is 0.314.

In turn, `COCC1(CO)C(=O)C2CCN1CC2` (configuration not stated) [PRIMA-1MET] + O=C(c1cc(Cc2n[nH]c(=O)c3ccccc23)ccc1F)N1CCN(C(=O)C2CC2)CC1 [Olaparib] (partner 8 µM) returned a relative viability of 0.75.

Staying with this assay, now noted: first compound 6.325 µM.
`COCC1(CO)C(=O)C2CCN1CC2` (configuration not stated) [PRIMA-1MET] + N=C(N)NC(=N)NCCc1ccccc1 [Phenformin] (partner 250 µM) gave a relative viability of 0.434.

In the case of `COCC1(CO)C(=O)C2CCN1CC2` (configuration not stated) [PRIMA-1MET] + Nc1nc2[nH]cc(CCc3ccc(C(=O)N[C@@H](CCC(=O)O)C(=O)O)cc3)c2c(=O)[nH]1 [Pemetrexed] (partner 0.2 µM), the relative viability was determined as 0.374.

The compound `COCC1(CO)C(=O)C2CCN1CC2` (configuration not stated) [PRIMA-1MET] + CC(=O)Nc1cccc(-n2c(=O)n(C3CC3)c(=O)c3c(Nc4ccc(I)cc4F)n(C)c(=O)c(C)c32)c1 [Trametinib] (partner 0.02 µM) returned a relative viability of 0.595.

In turn, `COCC1(CO)C(=O)C2CCN1CC2` (configuration not stated) [PRIMA-1MET] + Nc1ncn([C@H]2C[C@H](O)[C@@H](CO)O2)c(=O)n1 [Decitabine] (partner 2 µM) returned a relative viability of 0.382.

`COCC1(CO)C(=O)C2CCN1CC2` (configuration not stated) [PRIMA-1MET] + O=C(c1cc(Cc2n[nH]c(=O)c3ccccc23)ccc1F)N1CCN(C(=O)C2CC2)CC1 [Olaparib] (partner 8 µM): the relative viability amounted to 0.709.

Still in this assay, the particulars now being: first compound 20 µM.
In turn, `COCC1(CO)C(=O)C2CCN1CC2` (configuration not stated) [PRIMA-1MET] + N=C(N)NC(=N)NCCc1ccccc1 [Phenformin] (partner 250 µM) returned a relative viability of 0.0427.

Turning to `COCC1(CO)C(=O)C2CCN1CC2` (configuration not stated) [PRIMA-1MET] + Nc1nc2[nH]cc(CCc3ccc(C(=O)N[C@@H](CCC(=O)O)C(=O)O)cc3)c2c(=O)[nH]1 [Pemetrexed] (partner 0.2 µM), the relative viability stood at 0.304.

Consider `COCC1(CO)C(=O)C2CCN1CC2` (configuration not stated) [PRIMA-1MET] + CC(=O)Nc1cccc(-n2c(=O)n(C3CC3)c(=O)c3c(Nc4ccc(I)cc4F)n(C)c(=O)c(C)c32)c1 [Trametinib] (partner 0.02 µM), for which the relative viability was found to be 0.0646.

`COCC1(CO)C(=O)C2CCN1CC2` (configuration not stated) [PRIMA-1MET] + Nc1ncn([C@H]2C[C@H](O)[C@@H](CO)O2)c(=O)n1 [Decitabine] (partner 2 µM) showed a relative viability of 0.279.

In turn, `COCC1(CO)C(=O)C2CCN1CC2` (configuration not stated) [PRIMA-1MET] + O=C(c1cc(Cc2n[nH]c(=O)c3ccccc23)ccc1F)N1CCN(C(=O)C2CC2)CC1 [Olaparib] (partner 8 µM) came in with a relative viability of 0.585.

A further assay relates to HOP-62. The assay is described as above. The conditions noted are these: first compound 0.2 µM. The gist of the method:
as §1
For `COCC1(CO)C(=O)C2CCN1CC2` (configuration not stated) [PRIMA-1MET] + N=C(N)NC(=N)NCCc1ccccc1 [Phenformin] (partner 250 µM), the relative viability was 0.668.

Turning to `COCC1(CO)C(=O)C2CCN1CC2` (configuration not stated) [PRIMA-1MET] + Nc1nc2[nH]cc(CCc3ccc(C(=O)N[C@@H](CCC(=O)O)C(=O)O)cc3)c2c(=O)[nH]1 [Pemetrexed] (partner 0.2 µM), the relative viability is 0.407.

`COCC1(CO)C(=O)C2CCN1CC2` (configuration not stated) [PRIMA-1MET] + CC(=O)Nc1cccc(-n2c(=O)n(C3CC3)c(=O)c3c(Nc4ccc(I)cc4F)n(C)c(=O)c(C)c32)c1 [Trametinib] (partner 0.02 µM) returned a relative viability of 0.217.

As for `COCC1(CO)C(=O)C2CCN1CC2` (configuration not stated) [PRIMA-1MET] + Nc1ncn([C@H]2C[C@H](O)[C@@H](CO)O2)c(=O)n1 [Decitabine] (partner 2 µM), the relative viability was found to be 0.22.

For the origin of these results see the supplement of paper PMC10307832.
